Data reported in patent US11572369B2, “Bicyclic pyridine compositions and methods of using the same for cancer therapy” (UNIVERSITY OF SOUTH CAROLINA, priority 2019, dated 2023).

How the values were obtained:
Test in all cases: KINOMEscan
Format in all cases: binding
Details in all cases: 2000 nM
PKNB(M.tuberculosis) = biological target: T1, PKNB(M.tuberculosis) (Mycobacterium tuberculosis, UniProt P9WI81)
T1 construct: purchased DiscoveRx (KINOMEscan scanMAX panel)

PIK3CA(E545K) = biological target: T2, PIK3CA(E545K) (Homo sapiens, UniProt P42336, E545K)
T2 construct: DNA label; purchased DiscoveRx (KINOMEscan scanMAX panel)

CAMKK2 = biological target: T3, CAMKK2 (Homo sapiens, UniProt Q96RR4)
T3 construct: DNA label (qPCR read-out); purchased KINOMEscan (ScanMAX panel service)

PIP5K2B = biological target: T4, PIP5K2B (Homo sapiens, UniProt P78356)
T4 construct: DNA label (qPCR read-out); purchased KINOMEscan (DiscoveRx) panel
T4 sequence (P78356 whole entry): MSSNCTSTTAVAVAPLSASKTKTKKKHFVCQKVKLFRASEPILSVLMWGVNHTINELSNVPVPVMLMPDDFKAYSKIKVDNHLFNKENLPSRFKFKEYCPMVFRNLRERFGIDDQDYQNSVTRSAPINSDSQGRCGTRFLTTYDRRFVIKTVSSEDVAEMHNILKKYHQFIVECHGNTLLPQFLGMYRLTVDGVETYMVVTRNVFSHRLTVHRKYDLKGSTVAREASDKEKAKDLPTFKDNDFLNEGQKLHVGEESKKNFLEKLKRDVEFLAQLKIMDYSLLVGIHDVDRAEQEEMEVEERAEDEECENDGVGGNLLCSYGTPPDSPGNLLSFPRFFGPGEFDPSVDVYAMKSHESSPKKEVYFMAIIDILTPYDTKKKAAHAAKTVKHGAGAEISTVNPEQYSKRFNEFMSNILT

LYN = LYN (Homo sapiens, UniProt P07948)
PRKD3 = biological target: T5, PRKD3 (Homo sapiens, UniProt O94806)
T5 construct: purchased DiscoveRx (KINOMEscan scanMAX panel)

RAF1 = biological target: T6, RAF1 (Homo sapiens, UniProt P04049)
T6 construct: purchased DiscoveRx (KINOMEscan scanMAX panel)

CSF1R = biological target: T7, CSF1R (Homo sapiens, UniProt P07333)
T7 construct: DNA label (for qPCR read-out); purchased DiscoveRx (KINOMEscan scanMAX service)

PIK3CA(H1047L) = biological target: T8, PIK3CA(H1047L) (Homo sapiens, UniProt P42336, H1047L)
T8 construct: DNA label; purchased DiscoveRx (KINOMEscan scanMAX panel)

TAOK3 = biological target: T9, TAOK3 (Homo sapiens, UniProt Q9H2K8)
T9 construct: DNA label (for qPCR read-out); purchased DiscoveRx (KINOMEscan scanMAX panel, contract assay)

SYK = biological target: T10, SYK (Homo sapiens, UniProt P43405)
T10 construct: DNA label (for qPCR read-out); purchased DiscoveRx (KINOMEscan scanMAX panel, contract assay)

BRK = biological target: T11, BRK (Homo sapiens, UniProt Q13882)
T11 construct: DNA label (for qPCR read-out); purchased KINOMEscan scanMAX panel (DiscoveRx)

p38-alpha = biological target: T12, p38-alpha (Homo sapiens, UniProt Q16539)
T12 construct: purchased DiscoverX (KINOMEscan service)
T12 sequence (Q16539 whole entry): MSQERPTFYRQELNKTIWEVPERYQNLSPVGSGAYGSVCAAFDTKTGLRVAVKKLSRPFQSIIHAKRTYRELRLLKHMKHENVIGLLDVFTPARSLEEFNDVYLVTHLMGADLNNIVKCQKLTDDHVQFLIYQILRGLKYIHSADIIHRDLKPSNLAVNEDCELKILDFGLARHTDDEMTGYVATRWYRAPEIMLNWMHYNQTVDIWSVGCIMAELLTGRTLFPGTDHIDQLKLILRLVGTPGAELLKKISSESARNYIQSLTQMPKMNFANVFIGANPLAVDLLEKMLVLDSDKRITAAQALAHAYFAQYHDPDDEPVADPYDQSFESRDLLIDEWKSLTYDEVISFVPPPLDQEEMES

CDK4-cyclinD1 = biological target: T13, CDK4-cyclinD1 (Homo sapiens, UniProt P11802)
T13 construct: purchased DiscoverX (KINOMEscan service)
T13 sequence (P11802 whole entry): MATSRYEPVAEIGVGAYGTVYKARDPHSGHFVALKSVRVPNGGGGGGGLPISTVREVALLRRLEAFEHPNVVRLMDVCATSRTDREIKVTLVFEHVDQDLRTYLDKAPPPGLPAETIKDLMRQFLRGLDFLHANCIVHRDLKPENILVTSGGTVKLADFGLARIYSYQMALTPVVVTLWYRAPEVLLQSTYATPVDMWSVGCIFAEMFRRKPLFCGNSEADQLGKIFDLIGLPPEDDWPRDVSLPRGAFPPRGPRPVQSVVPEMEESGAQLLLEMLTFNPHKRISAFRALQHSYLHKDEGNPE
T13 sequence (P24385 whole entry partner): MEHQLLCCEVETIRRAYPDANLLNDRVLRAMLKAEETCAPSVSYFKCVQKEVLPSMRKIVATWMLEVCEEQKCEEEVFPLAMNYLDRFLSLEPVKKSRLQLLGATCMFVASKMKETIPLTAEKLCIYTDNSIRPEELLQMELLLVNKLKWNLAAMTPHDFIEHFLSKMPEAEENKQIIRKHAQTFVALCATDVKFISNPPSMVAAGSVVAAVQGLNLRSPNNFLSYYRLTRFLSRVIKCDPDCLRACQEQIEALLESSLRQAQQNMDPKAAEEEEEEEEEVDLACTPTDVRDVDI

DAPK3 = biological target: T14, DAPK3 (Homo sapiens, UniProt O43293)
T14 construct: DNA label; purchased DiscoveRx (KINOMEscan scanMAX panel)

CDK2 = biological target: T15, CDK2 (Homo sapiens, UniProt P24941)
T15 construct: purchased DiscoverX (KINOMEscan service)

[1] = biological target: T16, RSK3(Kin.Dom.2-C-terminal) (Homo sapiens, UniProt Q15349)
T16 construct: RSK3(Kin.Dom.2); purchased DiscoveRx (KINOMEscan scanMAX panel)

HIPK4 = biological target: T17, HIPK4 (Homo sapiens, UniProt Q8NE63)
T17 construct: DNA label (for qPCR read-out); purchased DiscoveRx (KINOMEscan scanMAX panel, contract assay)

BRSK1 = biological target: T18, BRSK1 (Homo sapiens, UniProt Q8TDC3)
T18 construct: DNA label (for qPCR read-out); purchased KINOMEscan scanMAX panel (DiscoveRx)

FLT3 = biological target: T19, FLT3 (Homo sapiens, UniProt P36888)
T19 construct: purchased DiscoveRx (KINOMEscan scanMAX panel)

CAMK2A = biological target: T20, CAMK2A (Homo sapiens, UniProt Q9UQM7)
T20 construct: DNA label (qPCR read-out); purchased KINOMEscan (ScanMAX panel service)

PIP5K1A = biological target: T21, PIP5K1A (Homo sapiens, UniProt Q99755)
T21 construct: DNA label (qPCR read-out); purchased KINOMEscan (DiscoveRx) panel

MKK7 = biological target: T22, MKK7 (Homo sapiens, UniProt O14733)
T22 construct: DNA label (qPCR read-out); purchased KINOMEscan scanMAX panel (DiscoveRx)

ASK1 = biological target: T23, ASK1 (Homo sapiens, UniProt Q99683)
T23 construct: DNA label (qPCR read-out); purchased KINOMEscan scanMAX panel (DiscoveRx)

CDKL2 = biological target: T24, CDKL2 (Homo sapiens, UniProt Q92772)
T24 construct: DNA label (for qPCR read-out); purchased DiscoveRx (KINOMEscan scanMAX service)
T24 sequence (Q92772 whole entry): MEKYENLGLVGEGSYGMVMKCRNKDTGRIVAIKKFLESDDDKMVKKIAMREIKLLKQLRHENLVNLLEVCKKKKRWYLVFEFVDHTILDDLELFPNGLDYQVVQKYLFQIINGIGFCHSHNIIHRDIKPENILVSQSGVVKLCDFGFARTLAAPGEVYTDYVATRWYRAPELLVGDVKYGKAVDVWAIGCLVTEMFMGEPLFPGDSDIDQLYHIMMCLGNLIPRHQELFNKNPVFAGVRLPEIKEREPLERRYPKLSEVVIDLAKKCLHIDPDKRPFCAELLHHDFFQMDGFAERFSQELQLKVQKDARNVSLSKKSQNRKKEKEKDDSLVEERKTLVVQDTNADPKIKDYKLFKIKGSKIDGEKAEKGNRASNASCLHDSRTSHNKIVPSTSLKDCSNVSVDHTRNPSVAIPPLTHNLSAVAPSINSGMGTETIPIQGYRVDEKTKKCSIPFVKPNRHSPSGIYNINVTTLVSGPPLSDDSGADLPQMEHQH

ABL1-phosphorylated = ABL1-phosphorylated (Homo sapiens, UniProt P00519)
EIF2AK1 = biological target: T25, EIF2AK1 (Homo sapiens, UniProt Q9BQI3)
T25 construct: purchased DiscoveRx (KINOMEscan scanMAX panel)

TAOK2 = biological target: T26, TAOK2 (Homo sapiens, UniProt Q9UL54)
T26 construct: DNA label (for qPCR read-out); purchased DiscoveRx (KINOMEscan scanMAX panel, contract assay)

DMPK2 = biological target: T27, DMPK2 (Homo sapiens, UniProt Q6DT37)
T27 construct: DNA label (qPCR read-out); purchased KINOMEscan (DiscoveRx) panel
T27 sequence (Q6DT37 whole entry): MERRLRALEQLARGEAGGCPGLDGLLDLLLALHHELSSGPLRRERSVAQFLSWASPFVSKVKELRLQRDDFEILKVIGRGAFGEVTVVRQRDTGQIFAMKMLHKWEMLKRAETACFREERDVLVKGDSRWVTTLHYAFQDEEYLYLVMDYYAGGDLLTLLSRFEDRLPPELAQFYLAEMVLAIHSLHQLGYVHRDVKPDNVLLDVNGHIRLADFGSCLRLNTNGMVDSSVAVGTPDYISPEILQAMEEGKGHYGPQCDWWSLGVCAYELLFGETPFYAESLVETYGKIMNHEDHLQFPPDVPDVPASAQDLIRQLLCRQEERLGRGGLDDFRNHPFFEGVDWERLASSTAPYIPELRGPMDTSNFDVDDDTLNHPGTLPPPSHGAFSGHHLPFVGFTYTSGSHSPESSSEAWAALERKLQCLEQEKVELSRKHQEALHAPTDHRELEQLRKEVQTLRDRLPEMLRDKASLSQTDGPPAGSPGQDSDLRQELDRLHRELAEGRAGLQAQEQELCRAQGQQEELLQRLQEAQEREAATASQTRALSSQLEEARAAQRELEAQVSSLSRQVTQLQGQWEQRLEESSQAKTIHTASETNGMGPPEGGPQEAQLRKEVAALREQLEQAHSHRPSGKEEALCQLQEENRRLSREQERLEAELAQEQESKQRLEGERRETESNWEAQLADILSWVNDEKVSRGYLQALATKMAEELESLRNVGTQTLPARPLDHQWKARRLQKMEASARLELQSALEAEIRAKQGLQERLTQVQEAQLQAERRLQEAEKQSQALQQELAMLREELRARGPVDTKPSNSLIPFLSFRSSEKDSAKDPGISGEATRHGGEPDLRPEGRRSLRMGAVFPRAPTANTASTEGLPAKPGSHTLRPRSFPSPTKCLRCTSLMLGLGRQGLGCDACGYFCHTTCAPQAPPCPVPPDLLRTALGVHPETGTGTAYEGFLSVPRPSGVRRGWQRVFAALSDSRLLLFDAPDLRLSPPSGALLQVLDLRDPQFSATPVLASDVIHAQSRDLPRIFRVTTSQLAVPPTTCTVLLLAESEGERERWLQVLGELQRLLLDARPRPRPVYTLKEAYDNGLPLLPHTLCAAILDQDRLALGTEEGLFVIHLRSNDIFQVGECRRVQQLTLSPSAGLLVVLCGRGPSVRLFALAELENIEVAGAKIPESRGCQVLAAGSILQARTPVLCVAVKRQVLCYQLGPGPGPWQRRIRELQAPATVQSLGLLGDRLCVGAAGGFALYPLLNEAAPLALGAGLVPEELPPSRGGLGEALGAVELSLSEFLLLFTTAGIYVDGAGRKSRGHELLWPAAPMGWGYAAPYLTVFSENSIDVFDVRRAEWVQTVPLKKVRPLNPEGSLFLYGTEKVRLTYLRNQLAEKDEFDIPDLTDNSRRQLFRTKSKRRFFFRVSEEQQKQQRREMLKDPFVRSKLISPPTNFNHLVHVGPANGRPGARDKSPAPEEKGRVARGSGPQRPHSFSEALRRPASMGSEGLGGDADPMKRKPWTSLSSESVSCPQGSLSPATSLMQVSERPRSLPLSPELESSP

RET(V804L) = biological target: T28, RET(V804L) (Homo sapiens, UniProt P07949, V804L)
T28 construct: purchased DiscoveRx (KINOMEscan scanMAX panel)

TBK1 = biological target: T29, TBK1 (Homo sapiens, UniProt Q9UHD2)
T29 construct: DNA label (for qPCR read-out); purchased DiscoveRx (KINOMEscan scanMAX panel, contract assay)

IKK-alpha = biological target: T30, IKK-alpha (Homo sapiens, UniProt O15111)
T30 construct: DNA label (qPCR read-out); purchased KINOMEscan (DiscoveRx) ScanMAX panel

MLK2 = biological target: T31, MLK2 (Homo sapiens, UniProt Q02779)
T31 construct: DNA label (qPCR read-out); purchased KINOMEscan scanMAX panel (DiscoveRx)

BRAF = biological target: T32, BRAF (Homo sapiens, UniProt P15056)
T32 construct: DNA label (for qPCR read-out); purchased KINOMEscan scanMAX panel (DiscoveRx)

DCAMKL3 = biological target: T33, DCAMKL3 (Homo sapiens, UniProt Q9C098)
T33 construct: DNA label (qPCR read-out); purchased KINOMEscan (DiscoveRx) panel
T33 sequence (Q9C098 whole entry): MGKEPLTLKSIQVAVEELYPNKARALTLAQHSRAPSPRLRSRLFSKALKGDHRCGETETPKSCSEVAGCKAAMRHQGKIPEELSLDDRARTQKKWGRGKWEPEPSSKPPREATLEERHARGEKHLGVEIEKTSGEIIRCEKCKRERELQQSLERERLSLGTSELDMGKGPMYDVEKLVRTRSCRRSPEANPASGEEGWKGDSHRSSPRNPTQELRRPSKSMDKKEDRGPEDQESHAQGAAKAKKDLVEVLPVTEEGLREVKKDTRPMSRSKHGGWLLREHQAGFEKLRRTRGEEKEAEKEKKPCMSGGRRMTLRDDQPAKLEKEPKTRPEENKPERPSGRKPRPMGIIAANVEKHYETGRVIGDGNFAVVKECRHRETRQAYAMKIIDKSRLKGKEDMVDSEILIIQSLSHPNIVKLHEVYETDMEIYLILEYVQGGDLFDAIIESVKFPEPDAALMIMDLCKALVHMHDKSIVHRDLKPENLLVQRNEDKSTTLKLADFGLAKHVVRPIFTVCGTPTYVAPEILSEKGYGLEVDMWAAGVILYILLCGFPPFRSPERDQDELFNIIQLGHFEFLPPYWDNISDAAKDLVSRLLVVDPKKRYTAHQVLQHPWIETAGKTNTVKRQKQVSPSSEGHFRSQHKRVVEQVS

NIK = biological target: T34, NIK (Homo sapiens, UniProt Q99558)
T34 construct: DNA label (qPCR read-out); purchased KINOMEscan (ScanMAX panel service)

AAK1 = biological target: T35, AAK1 (Homo sapiens, UniProt Q2M2I8)
T35 construct: DNA label (qPCR read-out); purchased DiscoverX (KINOMEscan service)
T35 sequence (Q2M2I8 whole entry): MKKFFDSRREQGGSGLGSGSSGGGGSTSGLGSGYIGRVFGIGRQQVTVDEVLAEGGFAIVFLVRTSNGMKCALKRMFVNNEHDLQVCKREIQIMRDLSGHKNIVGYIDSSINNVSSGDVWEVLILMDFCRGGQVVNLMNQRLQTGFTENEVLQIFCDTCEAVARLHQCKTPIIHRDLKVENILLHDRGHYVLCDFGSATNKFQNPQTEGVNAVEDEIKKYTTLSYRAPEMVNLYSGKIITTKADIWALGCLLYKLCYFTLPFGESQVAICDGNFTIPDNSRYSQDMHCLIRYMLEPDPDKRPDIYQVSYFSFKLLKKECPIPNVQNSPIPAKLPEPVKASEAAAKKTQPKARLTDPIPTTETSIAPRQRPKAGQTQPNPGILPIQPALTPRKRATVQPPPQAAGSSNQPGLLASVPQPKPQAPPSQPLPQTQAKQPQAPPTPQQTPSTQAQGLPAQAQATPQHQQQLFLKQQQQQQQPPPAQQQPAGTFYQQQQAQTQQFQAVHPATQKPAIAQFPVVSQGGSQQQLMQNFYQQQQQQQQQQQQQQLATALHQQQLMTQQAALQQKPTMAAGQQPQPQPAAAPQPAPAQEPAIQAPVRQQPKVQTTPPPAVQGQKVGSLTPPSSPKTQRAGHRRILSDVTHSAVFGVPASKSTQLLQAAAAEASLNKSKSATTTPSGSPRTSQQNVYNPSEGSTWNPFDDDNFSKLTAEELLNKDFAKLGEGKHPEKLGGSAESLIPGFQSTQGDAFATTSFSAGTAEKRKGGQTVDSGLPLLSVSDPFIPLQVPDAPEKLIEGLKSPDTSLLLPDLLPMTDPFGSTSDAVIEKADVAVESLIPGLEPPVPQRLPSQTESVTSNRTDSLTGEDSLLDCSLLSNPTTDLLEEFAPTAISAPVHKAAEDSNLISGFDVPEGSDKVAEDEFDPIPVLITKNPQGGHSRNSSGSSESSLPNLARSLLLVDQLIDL

CN(C)C(=O)c1ccc(N2CCCN(c3ccnc4sc(C(N)=O)c(N)c34)CC2)cc1 [15u, 3-amino-4-(4-(4-(dimethylcarbamoyl)phenyl)-1,4-diazepan-1-yl)thieno[2,3-b]pyridine-2-carboxamide]
% Ctrl (PKNB(M.tuberculosis)): 100 % Ctrl
% Ctrl (PIK3CA(E545K)): 96 % Ctrl
% Ctrl (CAMKK2): 100 % Ctrl
% Ctrl (PIP5K2B): 92 % Ctrl
% Ctrl (LYN): 100 % Ctrl
% Ctrl (PRKD3): 94 % Ctrl
% Ctrl (RAF1): 97 % Ctrl
% Ctrl (CSF1R): 98 % Ctrl
% Ctrl (PIK3CA(H1047L)): 94 % Ctrl
% Ctrl (TAOK3): 98 % Ctrl
% Ctrl (SYK): 95 % Ctrl
% Ctrl (BRK): 100 % Ctrl
% Ctrl (p38-alpha): 93 % Ctrl
% Ctrl (CDK4-cyclinD1): 94 % Ctrl
% Ctrl (DAPK3): 81 % Ctrl
% Ctrl (CDK2): 100 % Ctrl
% Ctrl [1]: 100 % Ctrl
% Ctrl (HIPK4): 100 % Ctrl
% Ctrl (BRSK1): 86 % Ctrl
% Ctrl (FLT3): 94 % Ctrl
% Ctrl (CAMK2A): 90 % Ctrl
% Ctrl (PIP5K1A): 100 % Ctrl
% Ctrl (MKK7): 100 % Ctrl
% Ctrl (ASK1): 100 % Ctrl
% Ctrl (CDKL2): 86 % Ctrl
% Ctrl (ABL1-phosphorylated): 90 % Ctrl
% Ctrl (EIF2AK1): 93 % Ctrl
% Ctrl (TAOK2): 92 % Ctrl
% Ctrl (DMPK2): 93 % Ctrl
% Ctrl (RET(V804L)): 100 % Ctrl
% Ctrl (TBK1): 99 % Ctrl
% Ctrl (IKK-alpha): 77 % Ctrl
% Ctrl (MLK2): 100 % Ctrl
% Ctrl (BRAF): 100 % Ctrl
% Ctrl (DCAMKL3): 91 % Ctrl
% Ctrl (NIK): 100 % Ctrl
% Ctrl (AAK1): 94 % Ctrl

[2H]C([2H])([2H])N(C(=O)c1ccc(N2CCCN(c3ccnc4sc(C(N)=O)c(N)c34)CC2)cc1)C([2H])([2H])[2H] [15u_D6, 3-amino-4-(4-(4-(bis(methyl-d3)carbamoyl)phenyl)-1,4-diazepan-1-yl)thieno[2,3-b]pyridine-2-carboxamide]
% Ctrl (PKNB(M.tuberculosis)): 90 % Ctrl
% Ctrl (PIK3CA(E545K)): 91 % Ctrl
% Ctrl (CAMKK2): 87 % Ctrl
% Ctrl (PIP5K2B): 95 % Ctrl
% Ctrl (LYN): 98 % Ctrl
% Ctrl (PRKD3): 100 % Ctrl
% Ctrl (RAF1): 100 % Ctrl
% Ctrl (CSF1R): 95 % Ctrl
% Ctrl (PIK3CA(H1047L)): 80 % Ctrl
% Ctrl (TAOK3): 73 % Ctrl
% Ctrl (SYK): 100 % Ctrl
% Ctrl (BRK): 99 % Ctrl
% Ctrl (p38-alpha): 99 % Ctrl
% Ctrl (CDK4-cyclinD1): 96 % Ctrl
% Ctrl (DAPK3): 83 % Ctrl
% Ctrl (CDK2): 99 % Ctrl
% Ctrl [1]: 89 % Ctrl
% Ctrl (HIPK4): 100 % Ctrl
% Ctrl (BRSK1): 97 % Ctrl
% Ctrl (FLT3): 86 % Ctrl
% Ctrl (CAMK2A): 100 % Ctrl
% Ctrl (PIP5K1A): 100 % Ctrl
% Ctrl (MKK7): 85 % Ctrl
% Ctrl (ASK1): 100 % Ctrl
% Ctrl (CDKL2): 96 % Ctrl
% Ctrl (ABL1-phosphorylated): 77 % Ctrl
% Ctrl (EIF2AK1): 78 % Ctrl
% Ctrl (TAOK2): 93 % Ctrl
% Ctrl (DMPK2): 94 % Ctrl
% Ctrl (RET(V804L)): 100 % Ctrl
% Ctrl (TBK1): 97 % Ctrl
% Ctrl (IKK-alpha): 90 % Ctrl
% Ctrl (MLK2): 95 % Ctrl
% Ctrl (BRAF): 96 % Ctrl
% Ctrl (DCAMKL3): 100 % Ctrl
% Ctrl (NIK): 97 % Ctrl
% Ctrl (AAK1): 90 % Ctrl
